One assay deals with B16 melanoma cells. Nature of the assay: Caspase-3 activity assay (EnzChek Caspase-3 Assay Kit), caspase-3 induction in tumor cells. Note: test concentration or dose not given here. The format is cell-based, mouse.
Conditions: not given
An outline of the steps: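 B16 melanoma cells exposed to compounds for 24 h, lysed on ice 30 min, and lysate incubated with Z-DEVD-R110 substrate about 30 min at room temperature. Fluorescence read at ~496/520 nm against untreated-cell and no-enzyme controls; caspase-3 induction serves as surrogate for GrB activity from Sb9 inhibition.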
Take `CN(Cc1ccncn1)C(=O)c1ccc2oc(-c3ccc(C(F)(F)F)cc3)nc2c1` [N-methyl-N-(4-pyrimidinylmethyl)-2-[4-(trifluoromethyl)phenyl]-1,3-benzoxazole-5-carboxamide]: the “Ratio of caspase-3 activity to Formula (III)” value (“Ratio of caspase-3 activity” below) is 0.1443.
Still for that read-out and setting: under `O=C(NCc1ccno1)c1ccc2oc(-c3cccc(F)c3)nc2c1` [2-(3-fluorophenyl)-N-(isoxazol-5-ylmethyl)-1,3-benzoxazole-5-carboxamide] stands 0.09526; under `CN(CCN1CCOCC1)C(=O)c1ccc2oc(-c3ccc(C(F)(F)F)cc3)nc2c1` [N-methyl-N-[2-(4-morpholinyl)ethyl]-2-[4-(trifluoromethyl)phenyl]-1,3-benzoxazole-5-carboxamide], 0.1327; under `CN(Cc1cccnc1)C(=O)c1ccc2oc(-c3ccc(C(F)(F)F)cc3)nc2c1` [N-methyl-N-(3-pyridinylmethyl)-2-[4-(trifluoromethyl)phenyl]-1,3-benzoxazole-5-carboxamide], 0.1669.
On the same count and under the same terms, under `CC(C)N(Cc1nccn1C)C(=O)c1ccc2oc(-c3cccc(F)c3)nc2c1` [2-(3-fluorophenyl)-N-isopropyl-N-[(1-methyl-1H-imidazol-2-yl)methyl]-1,3-benzoxazole-5-carboxamide] stands 1.634; under `CN(CCC(O)c1ccccc1)C(=O)c1ccc2oc(-c3cccc(F)c3)nc2c1` (stereo not shown) [2-(3-fluorophenyl)-N-(3-hydroxy-3-phenylpropyl)-N-methyl-1,3-benzoxazole-5-carboxamide], 0.1288.
The same measure, in the same setting: then `COc1cccc(-c2nc3ccc(C(=O)N4CCS(=O)(=O)CC4)cc3o2)c1` [6-[(1,1-dioxidothiomorpholin-4-yl)carbonyl]-2-(3-methoxyphenyl)-1,3-benzoxazole], with 0.7081; and `COC(=O)C1CCN(C(=O)c2ccc3nc(-c4cccc(OC)c4)oc3c2)CC1` [methyl 1-{[2-(3-methoxyphenyl)-1,3-benzoxazol-6-yl]carbonyl}-4-piperidinecarboxylate], with 0.1376.
Consider `CCOC(=O)CC1CCCCN1C(=O)c1ccc2nc(-c3cccc(OC)c3)oc2c1` (stereo not shown) [ethyl (1-{[2-(3-methoxyphenyl)-1,3-benzoxazol-6-yl]carbonyl}-2-piperidinyl)acetate], for which the “Ratio of caspase-3 activity” value is 0.1479.
For `COc1cccc(-c2nc3ccc(C(=O)N(CC4CC4)CC4CCCO4)cc3o2)c1` (stereo not shown) [N-(cyclopropylmethyl)-2-(3-methoxyphenyl)-N-(tetrahydro-2-furanylmethyl)-1,3-benzoxazole-6-carboxamide], the “Ratio of caspase-3 activity” value is reported as 0.1369.
On to `O=C1CN(C(=O)c2ccc3oc(-c4ccc(C(F)(F)F)cc4)nc3c2)CCN1` [4-({2-[4-(trifluoromethyl)phenyl]-1,3-benzoxazol-5-yl}carbonyl)-2-piperazinone], for which the “Ratio of caspase-3 activity” value worked out at 1.698.
For the compound `CN(CC(O)CO)C(=O)c1ccc2oc(-c3ccc(C(F)(F)F)cc3)nc2c1` (stereo not shown) [N-(2,3-dihydroxypropyl)-N-methyl-2-[4-(trifluoromethyl)phenyl]-1,3-benzoxazole-5-carboxamide], the “Ratio of caspase-3 activity” value stood at 0.135.
Same read-out and setting: then `CC(O)CNC(=O)c1ccc2oc(-c3ccc(C(F)(F)F)cc3)nc2c1` (stereo not shown) [N-(2-hydroxypropyl)-2-[4-(trifluoromethyl)phenyl]-1,3-benzoxazole-5-carboxamide], with 0.0922; and `COCC1CCN(C(=O)c2ccc3oc(-c4ccc(C(F)(F)F)cc4)nc3c2)C1` (stereo not shown) [5-{[3-(methoxymethyl)-1-pyrrolidinyl]carbonyl}-2-[4-(trifluoromethyl)phenyl]-1,3-benzoxazole], with 0.1424.
Still for that read-out and setting: then `COc1cccc(-c2nc3ccc(C(=O)NCc4cnc(C)cn4)cc3o2)c1` [2-(3-methoxyphenyl)-N-[(5-methylpyrazin-2-yl)methyl]-1,3-benzoxazole-6-carboxamide], with 0.1387.

Still in this assay, the particulars now being: relative to compound of Formula (III).
`CCN(C)C(=O)c1ccc2nc(C(F)(F)C(F)(F)F)oc2c1` [N-ethyl-N-methyl-2-(1,1,2,2,2-pentafluoroethyl)-1,3-benzoxazole-6-carboxamide]: the “Caspase-3 induction, Normalized to Formula (III) (%)” value is reported as −28.449%.
The same measure, in the same setting: under `CCN(C)C(=O)c1cc(OC)c(OC)cc1Br` [2-bromo-N-ethyl-4,5-dimethoxy-N-methylbenzamide] stands −74.0106%.
Still for that read-out and setting: then `CCOc1ccc(C(=O)NCC2CCOC2)cc1O` (stereo not shown) [4-ethoxy-3-hydroxy-N-[(oxolan-3-yl)methyl]benzamide], with −24.9053%.
On the same count and under the same terms, under `CCOc1ccc(C(=O)NCCN(C)C)cc1O` [N-[2-(dimethylamino)ethyl]-4-ethoxy-3-hydroxybenzamide] stands −38.5237%; under `CCN(C)C(=O)c1cc(OC)c(O)c(OC)c1` [N-ethyl-4-hydroxy-3,5-dimethoxy-N-methylbenzamide], −34.6356%; under `CCOc1ccc(C(=O)NCC2CCOCC2)cc1O` [4-ethoxy-3-hydroxy-N-[(oxan-4-yl)methyl]benzamide], −30.8469%.
Take `COCCCNC(=O)c1cccc2oc(N(C)C)nc12` [2-(dimethylamino)-N-(3-methoxypropyl)-1,3-benzoxazole-4-carboxamide]: the “Caspase-3 induction, Normalized to Formula (III) (%)” value is reported as −31.049%.
On the same count and under the same terms, under `COc1cc(C(=O)NCC2CCOCC2)ccc1OC(C)C` [3-methoxy-N-[(oxan-4-yl)methyl]-4-(propan-2-yloxy)benzamide] stands −66.2788%.
Same read-out and setting: then `CN(C)c1nc2cccc(C(=O)N3CCCC3)c2o1` [N,N-dimethyl-7-(pyrrolidine-1-carbonyl)-1,3-benzoxazol-2-amine], with −21.0312%.
`CCN(C)C(=O)c1ccc2oc(=O)[nH]c2c1` [N-ethyl-N-methyl-2-oxo-2,3-dihydro-1,3-benzoxazole-5-carboxamide]: the “Caspase-3 induction, Normalized to Formula (III) (%)” value is given as −21.7056%.
The same measure, in the same setting: then `COc1cc(Br)c(C(=O)N2CCCC2)cc1OC` [1-(2-bromo-4,5-dimethoxybenzoyl)pyrrolidine], with 18.4794%; and `O=C(NCc1ccccc1)c1ccc2nc(C3CCCO3)oc2c1` (stereo not shown) [N-benzyl-2-(oxolan-2-yl)-1,3-benzoxazole-6-carboxamide], with −34.6335%; and `COCCCNC(=O)c1cc(O)c(O)cc1C` [4,5-dihydroxy-N-(3-methoxypropyl)-2-methylbenzamide], with −55.7377%.
On the same count and under the same terms, then `O=C(NCc1ccccc1)c1ccc2nc(C3CC3)oc2c1` [N-benzyl-2-cyclopropyl-1,3-benzoxazole-6-carboxamide], with −32.882%.
On the same count and under the same terms, under `O=C(c1ccc2nc(C3CCCCC3)oc2c1)N1CCCC1` [2-cyclohexyl-6-(pyrrolidine-1-carbonyl)-1,3-benzoxazole] stands −29.7019%; under `COc1cc(Br)c(C(=O)NCCN(C)C)cc1OC` [2-bromo-N-[2-(dimethylamino)ethyl]-4,5-dimethoxybenzamide], −70.1327%.
